These results are taken from patent publication US20230364070A1, “PYRROLO[3,2-C]PYRIDIN-4-ONE DERIVATIVES USEFUL IN THE TREATMENT OF CANCER” (Scorpion Therapeutics, Inc., priority 2020, published 2023).

Structures are written as SMILES.

Assay type in all cases: cell-based
For one test, the target named is T1, Ba/F3 cells with EGFR WT (Homo sapiens, UniProt P00533).
T1 construct: expressed in transfected cells; host or cells: Ba/F3 (murine pro-B cells), retroviral transduction, puromycin selection, maintained with EGF
In words: EGFR activity: Ba/F3 cell viability (CellTiter-Glo, 72 h), EGFR WT. Particulars: read-out: BaF3 WT IC50.

The target in test [1] is T2, Ba/F3 cells with EGFR exon 20 NPG Ins D770_N771 (Homo sapiens, UniProt P00533, INS770NPG).
T2 construct: expressed in transfected cells; host or cells: Ba/F3 (murine pro-B cells), retroviral transduction, puromycin selection, IL3-independent pool
In words: EGFR activity: Ba/F3 cell viability (CellTiter-Glo, 72 h), EGFR exon 20 NPG insertion. Particulars: EGFR exon 20 NPG Ins D770_N771, cell viability, read-out: BaF3 NPG IC50. A general note: Cellular ATP, detected with luciferase, serves as a proxy for viable cell number.

The target of test [2] is T3, Ba/F3 cells with EGFR exon 20 ASV Ins V769_D770 (Homo sapiens, UniProt P00533, INS769ASV).
T3 construct: expressed in transfected cells; host or cells: Ba/F3 (murine pro-B cells), retroviral transduction, puromycin selection, IL3-independent pool
In words: EGFR activity: Ba/F3 cell viability (CellTiter-Glo, 72 h), EGFR exon 20 ASV insertion. The note with it: EGFR exon 20 ASV Ins V769_D770, cell viability, read-out: BaF3 ASV IC50.

For another test, the target named is T4, pEGFR in CUTO14 cells (Homo sapiens, UniProt P00533, DUP767-769).
T4 construct: endogenous in cells; host or cells: CUTO14 cells
Kind of test: Inhibitor activity on EGFR phosphorylation (pEGFR AlphaLISA, 2 h), CUTO14 cells. As for the experimental part:
CUTO14 cells were obtained from Dr. Robert C. Doebele at the University of Colorado.
Shake 350 rpm for 1 hr in the dark • 3.4 Prepare donor mix under low light conditions prior to use. Dispense 5 μL of donor mix to all the wells. Mix well on the shaker, seal and wrap in aluminum foil and incubate 1.5 hrs at room temperature in the dark • 3.5 Transfer 18.5 μL mixture to OptiPlate 384, and read using an Envision.
(In general: In Alpha technology, singlet oxygen from a donor bead excites a nearby acceptor bead.)

T1 sequence (P00533 25-1210): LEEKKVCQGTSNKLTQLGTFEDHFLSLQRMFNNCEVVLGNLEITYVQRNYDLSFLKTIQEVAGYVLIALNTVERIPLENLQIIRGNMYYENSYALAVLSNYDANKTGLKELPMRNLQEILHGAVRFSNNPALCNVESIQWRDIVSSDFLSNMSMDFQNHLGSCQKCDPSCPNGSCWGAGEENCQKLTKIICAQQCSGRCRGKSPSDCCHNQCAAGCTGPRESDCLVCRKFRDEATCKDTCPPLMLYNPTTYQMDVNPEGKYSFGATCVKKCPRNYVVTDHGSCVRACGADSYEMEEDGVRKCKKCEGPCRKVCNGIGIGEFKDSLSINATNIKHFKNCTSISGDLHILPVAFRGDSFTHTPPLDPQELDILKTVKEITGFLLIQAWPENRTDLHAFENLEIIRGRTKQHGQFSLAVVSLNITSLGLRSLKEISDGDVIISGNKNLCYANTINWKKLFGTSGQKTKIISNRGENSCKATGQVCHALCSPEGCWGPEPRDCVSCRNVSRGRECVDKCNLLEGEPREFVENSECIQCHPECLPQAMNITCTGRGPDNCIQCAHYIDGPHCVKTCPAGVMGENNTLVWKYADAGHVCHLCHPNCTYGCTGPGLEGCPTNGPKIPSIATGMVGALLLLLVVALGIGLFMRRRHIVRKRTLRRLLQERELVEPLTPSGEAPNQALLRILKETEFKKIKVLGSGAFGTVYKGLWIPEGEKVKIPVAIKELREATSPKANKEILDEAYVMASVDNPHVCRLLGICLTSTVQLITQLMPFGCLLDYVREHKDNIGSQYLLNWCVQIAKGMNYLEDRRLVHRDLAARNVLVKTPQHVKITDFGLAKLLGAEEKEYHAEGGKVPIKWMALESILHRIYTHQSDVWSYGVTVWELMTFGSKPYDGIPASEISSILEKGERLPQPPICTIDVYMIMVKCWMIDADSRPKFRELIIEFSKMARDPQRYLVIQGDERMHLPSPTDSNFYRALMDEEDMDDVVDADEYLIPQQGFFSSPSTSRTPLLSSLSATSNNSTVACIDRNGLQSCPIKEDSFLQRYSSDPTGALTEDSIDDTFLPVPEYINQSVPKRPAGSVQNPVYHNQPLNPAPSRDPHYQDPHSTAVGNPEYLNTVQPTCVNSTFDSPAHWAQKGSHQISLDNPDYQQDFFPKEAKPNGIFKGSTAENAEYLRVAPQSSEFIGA
T4 sequence (P00533 with tags, fused parts or gaps DUP767-769): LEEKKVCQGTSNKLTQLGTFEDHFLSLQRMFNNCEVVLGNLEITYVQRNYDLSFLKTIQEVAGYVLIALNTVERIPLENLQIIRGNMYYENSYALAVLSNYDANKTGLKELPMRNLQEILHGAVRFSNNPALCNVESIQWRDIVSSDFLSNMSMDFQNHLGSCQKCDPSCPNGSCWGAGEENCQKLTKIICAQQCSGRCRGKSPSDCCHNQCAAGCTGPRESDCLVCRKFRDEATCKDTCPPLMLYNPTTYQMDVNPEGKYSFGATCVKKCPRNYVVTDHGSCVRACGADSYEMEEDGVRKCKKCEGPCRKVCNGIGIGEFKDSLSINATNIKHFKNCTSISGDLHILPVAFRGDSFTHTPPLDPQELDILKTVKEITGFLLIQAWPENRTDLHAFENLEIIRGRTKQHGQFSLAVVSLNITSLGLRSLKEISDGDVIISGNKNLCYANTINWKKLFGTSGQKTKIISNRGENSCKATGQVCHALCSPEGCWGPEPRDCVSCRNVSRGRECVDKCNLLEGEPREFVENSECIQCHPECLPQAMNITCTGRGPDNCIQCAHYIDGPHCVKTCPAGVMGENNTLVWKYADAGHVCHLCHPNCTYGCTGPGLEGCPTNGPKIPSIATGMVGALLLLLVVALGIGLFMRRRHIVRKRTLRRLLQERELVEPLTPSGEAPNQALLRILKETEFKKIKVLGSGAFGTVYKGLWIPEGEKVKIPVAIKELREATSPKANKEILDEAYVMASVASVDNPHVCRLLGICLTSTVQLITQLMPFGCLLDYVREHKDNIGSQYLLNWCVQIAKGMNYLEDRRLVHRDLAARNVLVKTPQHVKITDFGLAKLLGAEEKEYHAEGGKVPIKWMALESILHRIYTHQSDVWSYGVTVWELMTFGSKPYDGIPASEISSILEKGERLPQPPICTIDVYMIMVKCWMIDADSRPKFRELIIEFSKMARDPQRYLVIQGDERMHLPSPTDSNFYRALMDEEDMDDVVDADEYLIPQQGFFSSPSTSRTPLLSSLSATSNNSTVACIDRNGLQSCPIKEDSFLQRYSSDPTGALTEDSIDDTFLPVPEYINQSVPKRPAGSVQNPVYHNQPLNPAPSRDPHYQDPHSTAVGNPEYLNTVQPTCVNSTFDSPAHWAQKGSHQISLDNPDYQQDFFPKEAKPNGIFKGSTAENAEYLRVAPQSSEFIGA
T3 sequence (P00533 with tags, fused parts or gaps INS769ASV): as the sequence (P00533 with tags, fused parts or gaps DUP767-769) above
T2 sequence (P00533 with tags, fused parts or gaps INS770NPG): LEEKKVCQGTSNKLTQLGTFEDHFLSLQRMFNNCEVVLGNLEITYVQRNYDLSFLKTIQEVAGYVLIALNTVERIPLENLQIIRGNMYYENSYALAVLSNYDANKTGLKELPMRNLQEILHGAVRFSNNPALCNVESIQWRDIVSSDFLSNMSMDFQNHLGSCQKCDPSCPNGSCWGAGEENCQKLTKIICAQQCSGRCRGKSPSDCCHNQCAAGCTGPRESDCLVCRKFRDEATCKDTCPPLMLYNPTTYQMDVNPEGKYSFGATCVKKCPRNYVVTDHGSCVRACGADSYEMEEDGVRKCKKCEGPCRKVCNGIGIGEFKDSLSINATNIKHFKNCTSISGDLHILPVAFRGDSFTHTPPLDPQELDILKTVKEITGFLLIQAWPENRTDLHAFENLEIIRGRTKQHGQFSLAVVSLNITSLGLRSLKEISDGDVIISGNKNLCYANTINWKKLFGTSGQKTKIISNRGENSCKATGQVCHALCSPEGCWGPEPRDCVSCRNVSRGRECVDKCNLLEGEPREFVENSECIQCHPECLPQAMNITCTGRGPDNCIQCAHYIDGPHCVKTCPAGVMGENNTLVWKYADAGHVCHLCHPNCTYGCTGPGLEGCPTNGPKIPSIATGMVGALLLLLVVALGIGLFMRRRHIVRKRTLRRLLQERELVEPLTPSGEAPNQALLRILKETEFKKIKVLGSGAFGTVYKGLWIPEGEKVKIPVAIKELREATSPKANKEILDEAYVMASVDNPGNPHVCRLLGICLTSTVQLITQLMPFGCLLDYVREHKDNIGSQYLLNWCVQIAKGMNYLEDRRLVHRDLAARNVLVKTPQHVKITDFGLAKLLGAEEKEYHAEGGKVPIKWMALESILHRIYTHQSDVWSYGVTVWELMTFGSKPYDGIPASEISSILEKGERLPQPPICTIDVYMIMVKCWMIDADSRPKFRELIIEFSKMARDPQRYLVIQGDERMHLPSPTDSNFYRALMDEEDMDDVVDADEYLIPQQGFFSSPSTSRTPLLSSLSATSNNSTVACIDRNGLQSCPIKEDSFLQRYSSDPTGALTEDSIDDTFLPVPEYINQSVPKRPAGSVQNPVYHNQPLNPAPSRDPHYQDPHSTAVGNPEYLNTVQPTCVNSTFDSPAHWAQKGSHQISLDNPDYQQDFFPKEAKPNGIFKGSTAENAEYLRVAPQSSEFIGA

In the case of `CC#CC(=O)N1CC[C@@H]1COc1cnccc1-c1[nH]c2c(c1Nc1cccc(Cl)c1F)C(=O)NCC2` [compound 407], the IC50 (on Ba/F3 cells with EGFR WT; in test [1]; in test [2]; against pEGFR in CUTO14 cells) was < 100 nM each time.

For the compound `COc1c(F)cccc1Nc1c(-c2ccncc2C#CC(C)(C)NC(=O)/C=C/CN2CCOCC2)[nH]c2c1C(=O)NCC2` [compound 391], the IC50 – broadly, the concentration at which inhibition is half-maximal – is > 1000 nM on Ba/F3 cells with EGFR WT, 100 to 1000 nM in test [1], 100 to 1000 nM in test [2] and 100 to 1000 nM on pEGFR in CUTO14 cells.

Consider `COc1c(F)cccc1Nc1c(-c2ccncc2C#CC(C)(C)NC(=O)/C=C/CN2CC(F)C2)[nH]c2c1C(=O)NCC2` [compound 463], for which the IC50 was > 1000 nM at Ba/F3 cells with EGFR WT, < 100 nM in test [1], 100 to 1000 nM in test [2] and < 100 nM on pEGFR in CUTO14 cells.

With `COc1c(Cl)cccc1Nc1c(-c2ccncc2C#CC(C)(C)NC(=O)/C=C/CN(C)C)[nH]c2c1C(=O)NCC2` [compound 388], the IC50 on Ba/F3 cells with EGFR WT was 100 to 1000 nM; in test [1] it was < 100 nM; in test [2] it was < 100 nM; at pEGFR in CUTO14 cells it was < 100 nM.

`Cc1c(F)cccc1Nc1c(-c2ccncc2C#CC(C)(C)NC(=O)/C=C/CN(C)C)[nH]c2c1C(=O)NCC2` [compound 449]: the IC50 at Ba/F3 cells with EGFR WT is 100 to 1000 nM; in test [1], < 100 nM; in test [2], < 100 nM; at pEGFR in CUTO14 cells it was < 100 nM.

`COc1c(F)cccc1Nc1c(-c2ccncc2OC[C@]2(C)CCN2C(=O)/C=C/CN(C)C)[nH]c2c1C(=O)NCC2` [compound 423]: the IC50 at Ba/F3 cells with EGFR WT is > 1000 nM; in test [1] it was < 100 nM; in test [2], < 100 nM; at pEGFR in CUTO14 cells, < 100 nM.

On to `COc1c(Cl)cccc1Nc1c(-c2ccncc2C#C[C@@H]2CCN2C(=O)/C=C/CN(C)C)[nH]c2c1C(=O)NCC2` [compound 457], for which the IC50 (at Ba/F3 cells with EGFR WT; in test [1]; in test [2]; on pEGFR in CUTO14 cells) was < 100 nM throughout.

As for `C=CC(=O)N1CCC[C@]1(C)C#Cc1cnccc1-c1[nH]c2c(c1Nc1cccc(F)c1CC)C(=O)NCC2` [compound 305], the IC50 is 100 to 1000 nM at Ba/F3 cells with EGFR WT, < 100 nM in test [1], < 100 nM in test [2] and < 100 nM against pEGFR in CUTO14 cells.

For `C=CC(=O)NC(C)(C)COc1cnccc1-c1[nH]c2c(c1Nc1cccc(Cl)c1OC)C(=O)NCC2` [compound 448], the IC50 at Ba/F3 cells with EGFR WT is 100 to 1000 nM; in test [1], < 100 nM; in test [2], < 100 nM; on pEGFR in CUTO14 cells, < 100 nM.

For `C=C(F)C(=O)N1CC[C@@H]1COc1cnccc1-c1[nH]c2c(c1Nc1cccc(F)c1C)C(=O)NCC2` [compound 567], the IC50 is 100 to 1000 nM at Ba/F3 cells with EGFR WT, < 100 nM in test [1], 100 to 1000 nM in test [2] and < 100 nM against pEGFR in CUTO14 cells.

For `CC#CC(=O)N1CC[C@@]1(C)COc1cnccc1-c1[nH]c2c(c1Nc1cccc(F)c1OC)C(=O)NCC2` [compound 357], the IC50 was > 1000 nM on Ba/F3 cells with EGFR WT, 100 to 1000 nM in test [1], 100 to 1000 nM in test [2] and 100 to 1000 nM against pEGFR in CUTO14 cells.

On to `C#CC(=O)N1CC[C@@H]1COc1cnccc1-c1[nH]c2c(c1Nc1cccc(Cl)c1OC)C(=O)NCC2` [compound 447], for which the IC50 was 100 to 1000 nM on Ba/F3 cells with EGFR WT, < 100 nM in test [1], < 100 nM in test [2] and < 100 nM against pEGFR in CUTO14 cells.

As for `CCc1c(F)cccc1Nc1c(-c2ccncc2OC[C@@]2(C)CCN2C(=O)/C=C/CN(C)C)[nH]c2c1C(=O)NCC2` [compound 426], the IC50 was 100 to 1000 nM at Ba/F3 cells with EGFR WT, < 100 nM in test [1], < 100 nM in test [2] and < 100 nM on pEGFR in CUTO14 cells.

For `C=CC(=O)N1CCN(C)C[C@@H]1COc1cnccc1-c1[nH]c2c(c1Nc1cccc(F)c1OC)C(=O)NCC2` [compound 566], the IC50 on Ba/F3 cells with EGFR WT was > 1000 nM; in test [1] it was 100 to 1000 nM; in test [2] it was > 1000 nM; at pEGFR in CUTO14 cells, > 1000 nM.

In the case of `C=CC(=O)N1[C@H](C#Cc2cnccc2-c2[nH]c3c(c2Nc2cccc(F)c2OC)C(=O)NCC3)CC[C@@H]1C` [compound 255, 3-[(3-fluoro-2-methoxyphenyl)amino]-2-(3-{2-[(2S,5S)-5-methyl-1-(prop-2-enoyl)pyrrolidin-2-yl]ethynyl}pyridin-4-yl)-1H,5H,6H,7H-pyrrolo[3,2-c]pyridin-4-one], the half-inhibitory concentration (IC50) (on Ba/F3 cells with EGFR WT; in test [1]; in test [2]; against pEGFR in CUTO14 cells) was < 100 nM throughout.

As to `C=CC(=O)NC1(C#Cc2cnccc2-c2[nH]c3c(c2Nc2cc(F)cc(Cl)c2OC)C(=O)NCC3)COC1` [compound 440], the half-inhibitory concentration (IC50) at Ba/F3 cells with EGFR WT was 100 to 1000 nM; in test [1], < 100 nM; in test [2], < 100 nM; against pEGFR in CUTO14 cells it was < 100 nM.

Regarding `COc1c(Cl)cccc1Nc1c(-c2ccncc2C#CC23CC(CN2C(=O)/C=C/CN(C)C)C3)[nH]c2c1C(=O)NCC2` [compound 436], the IC50 was 100 to 1000 nM at Ba/F3 cells with EGFR WT, < 100 nM in test [1], < 100 nM in test [2] and < 100 nM on pEGFR in CUTO14 cells.

`COc1c(F)cccc1Nc1c(-c2ccncc2C#CC23CC(CN2C(=O)/C=C/CN(C)C)C3)[nH]c2c1C(=O)NCC2` [compound 437]: the IC50 at Ba/F3 cells with EGFR WT is 100 to 1000 nM; in test [1], < 100 nM; in test [2], < 100 nM; against pEGFR in CUTO14 cells it was < 100 nM.

In the case of `COc1c(F)cccc1Nc1c(-c2ccncc2C#CC(C)(C)NC(=O)/C=C/CN2CCN(C)CC2)[nH]c2c1C(=O)NCC2` [compound 464], the IC50 was > 1000 nM on Ba/F3 cells with EGFR WT, > 1000 nM in test [1], > 1000 nM in test [2] and 100 to 1000 nM against pEGFR in CUTO14 cells.

Turning to `COc1c(Cl)cccc1Nc1c(-c2ccncc2OC[C@]2(C)CCN2C(=O)/C=C/CN(C)C)[nH]c2c1C(=O)NCC2` [compound 424], the IC50 at Ba/F3 cells with EGFR WT is 100 to 1000 nM; in test [1], < 100 nM; in test [2], < 100 nM; at pEGFR in CUTO14 cells, < 100 nM.

With `C=CC(=O)NC1(C#Cc2cnccc2-c2[nH]c3c(c2Nc2cccc(F)c2OC)C(=O)NCC3)CC(F)(F)C1` [compound 401], the IC50 is 100 to 1000 nM on Ba/F3 cells with EGFR WT, < 100 nM in test [1], < 100 nM in test [2] and < 100 nM on pEGFR in CUTO14 cells.

Regarding `CCc1c(F)cccc1Nc1c(-c2ccncc2C#CC(C)(C)NC(=O)/C=C/CN(C)C)[nH]c2c1C(=O)NCC2` [compound 453], the IC50 was 100 to 1000 nM at Ba/F3 cells with EGFR WT, < 100 nM in test [1], < 100 nM in test [2] and < 100 nM at pEGFR in CUTO14 cells.

Take `COc1c(Cl)cccc1Nc1c(-c2ccncc2C#C[C@@]2(NC(=O)/C=C/CN(C)C)CCOC2)[nH]c2c1C(=O)NCC2` [compound 420]: the IC50 is 100 to 1000 nM at Ba/F3 cells with EGFR WT, < 100 nM in test [1], < 100 nM in test [2] and < 100 nM at pEGFR in CUTO14 cells.

With `COc1c(Cl)cc(F)cc1Nc1c(-c2ccncc2C#C[C@@]2(C)CCCN2C(=O)/C=C/CN(C)C)[nH]c2c1C(=O)NCC2` [compound 435], the IC50 at Ba/F3 cells with EGFR WT is 100 to 1000 nM; in test [1], < 100 nM; in test [2], < 100 nM; on pEGFR in CUTO14 cells it was < 100 nM.

With `C=CC(=O)N1[C@@H](COc2cnccc2-c2[nH]c3c(c2Nc2cccc(Cl)c2OC)C(=O)NCC3)C[C@H]1C` [compound 271], the IC50 (at Ba/F3 cells with EGFR WT; in test [1]; in test [2]; on pEGFR in CUTO14 cells) was < 100 nM throughout.

In the case of `C=CC(=O)N1[C@@H](C#Cc2cnccc2-c2[nH]c3c(c2Nc2cccc(F)c2OC)C(=O)NCC3)C[C@@H]2C[C@@H]21` [compound 301], the IC50 on Ba/F3 cells with EGFR WT is 100 to 1000 nM; in test [1], < 100 nM; in test [2] it was < 100 nM; on pEGFR in CUTO14 cells it was < 100 nM.

Regarding `C=CC(=O)N1[C@H]2CC[C@H](C2)[C@@H]1C#Cc1cnccc1-c1[nH]c2c(c1Nc1cccc(Cl)c1OC)C(=O)NCC2` [compound 236, 3-[(3-chloro-2-methoxyphenyl)amino]-2-(3-{2-[(1S,3R,4R)-2-(prop-2-enoyl)-2-azabicyclo[2.2.1]heptan-3-yl]ethynyl}pyridin-4-yl)-1H,5H,6H,7H-pyrrolo[3,2-c]pyridin-4-one], the IC50 is 100 to 1000 nM at Ba/F3 cells with EGFR WT, < 100 nM in test [1], < 100 nM in test [2] and < 100 nM at pEGFR in CUTO14 cells.

In the case of `COc1c(F)cccc1Nc1c(-c2ccncc2C#CC(C)(C)NC(=O)C#CCN(C)C)[nH]c2c1C(=O)NCC2` [compound 465], the IC50 at Ba/F3 cells with EGFR WT was 100 to 1000 nM; in test [1], < 100 nM; in test [2], < 100 nM; at pEGFR in CUTO14 cells, < 100 nM.

As for `CC#CC(=O)N1CC[C@@H]1COc1cnccc1-c1[nH]c2c(c1Nc1cccc(F)c1Cl)C(=O)NCC2` [compound 406], the IC50 (at Ba/F3 cells with EGFR WT; in test [1]; in test [2]; at pEGFR in CUTO14 cells) was < 100 nM throughout.

With `COc1c(Cl)cccc1Nc1c(-c2ccncc2C#C[C@@]2(C)CCCN2C(=O)C#CCN(C)C)[nH]c2c1C(=O)NCC2` [compound 433], the concentration for half-maximal inhibition (IC50) at Ba/F3 cells with EGFR WT is 100 to 1000 nM; in test [1], < 100 nM; in test [2] it was < 100 nM; at pEGFR in CUTO14 cells it was < 100 nM.
